Measurements taken from publication PMC10650850, “Discovery, Structure–Activity Relationship and In Vitro Anticancer Activity of Small-Molecule Inhibitors of the Protein–Protein Interactions between AF9/ENL and AF4 or DOT1L” (Cancers, 2023).
Structures can show the parent of a compound that is named as a salt.

Key:
Hela = experiment: Antiproliferation assay (XTT), Hela; type: cell-based; conditions: 7 days incubation; for EC50: Homo sapiens, HeLa, 168 h, read-out: Antitumor activity EC50, Hela
Description: (§1) The antitumor activity of selected compounds was evaluated against the proliferation of a panel of MLL-r leukemia and other cancer cells. MV4;11 and Molm-13 leukemia cells contain MLL-AF4 and MLL-AF9 fusion oncogenes, respectively. NB4 and HL60 are AML cells without MLL translocation. Hela (cervical cancer) is a solid tumor cell line. […] The anti-proliferation activity of these compounds against other AML cells (i.e., NB4 and HL60) might be due to their inhibition of SEC-mediated gene expression (e.g., Myc), as observed in our previous studies.
(§2) Proliferation inhibition assays were performed using an XTT assay kit (Biotium, Fremont, CA, USA) following our previous methods. The antiproliferation EC50 values were determined using Prism 5 and the reported results were the mean values of at least three independent experiments. The incubation time for all compounds was 7 days.

HL60 = experiment: Antiproliferation assay (XTT), HL60; type: cell-based; conditions: Homo sapiens, HL-60, 168 h, 7 days incubation, read-out: Antitumor activity EC50, HL60;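 note: EC50 values in Micromolar not Nanomolar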
Description: as §1, §2

Molm13 = experiment: Antiproliferation assay (XTT), Molm-13; type: cell-based; conditions: Homo sapiens, MOLM-13, 168 h, 7 days incubation, read-out: Antitumor activity EC50, Molm13;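 note: EC50 values in Micromolar not Nanomolar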
Description: as §1, §2

AF9-DOT1L interaction = biological target: T1, AF9-DOT1L interaction (Homo sapiens, UniProt P42568); experiment: AlphaLisa assay, AF9-DOT1L interaction; type: binding; conditions: for IC50: MBP-protein 5 nM, biotinylated peptide 40 nM, 3 independent experiments with standard deviation, read-out: IC50 (μM) against the AF9-DOT1L interaction; for inhibition at 5 µM: compound at 5 μM, read-out: % Inhibition at 5 μM against the AF9-DOT1L interaction
T1 construct: human AF9 AHD domain (475–568); made in house; host or cells: E. coli BL21(DE3)
T1 sequence (P42568 475-568): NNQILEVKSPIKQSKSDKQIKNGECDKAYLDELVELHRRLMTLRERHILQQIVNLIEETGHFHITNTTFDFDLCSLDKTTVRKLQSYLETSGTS
Source text: An AlphaLisa assay we previously developed was used for compound screening for inhibitors of the AF9-DOT1L interaction. The PPI takes the DOT1L-peptide coated donor beads and AF9 AHD coated acceptor beads together. The donor beads are illuminated with a laser beam (680 nm) to generate singlet oxygen radicals, which activate the adjacent acceptor beads to produce luminescence at 615 nm. When a compound can disrupt such PPI and separate the donor and acceptor beads, the highly unstable radicals are rapidly quenched by water without generating luminescence.
(§3) The cDNA for the human AF9 AHD domain (475–568) and ENL AHD domain (489–559) was synthesized (by Genscript, Piscataway, NJ, USA) and inserted into the pMAL c5X expression plasmid. The DOT1L peptide (Biotin-AHX-[…]) and AF4 peptide (Biotin-AHX-[…]) for the Alpha assay were purchased from Genscript.
(§4) Alpha assays were developed in our previous publication, using a Perkin-Elmer AlphaLisa anti-MBP kit, which contains streptavidin donor beads and anti-MBP acceptor beads. Briefly, the assay was performed using a MBP-protein (5 nM), a biotinylated peptide (40 nM), and increasing concentrations of a compound in 25 µL buffer (PBS with 0.5% BSA, pH 7.5) in 384-well plates according to the manufacturer’s protocol and measured with a Tecan SPARK microplate reader. Data were imported into Prism (version 5.0), and IC50 values from 3 independent experiments with standard deviation were obtained by using a standard dose-response curve fitting.

MV4;11 = experiment: Antiproliferation assay (XTT), MV4;11; type: cell-based; conditions: Homo sapiens, MV4-11, 168 h, 7 days incubation, read-out: Antitumor activity EC50, MV4;11;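 note: EC50 values in Micromolar not Nanomolar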
Description: as §1, §2

NB4 = experiment: Antiproliferation assay (XTT), NB4; type: cell-based; conditions: Homo sapiens, NB-4, 168 h, 7 days incubation, read-out: Antitumor activity EC50, NB4;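 note: EC50 values in Micromolar not Nanomolar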
Description: as §1, §2

[1] = system: panel of MLL-r leukemia and other cancer cells; experiment: Antiproliferation assay (XTT), panel of MLL-r leukemia and other cancer cells; type: cell-based; conditions: 7 days; for EC50: 168 h, MV4;11, Molm-13, NB4 and HL60 cells, read-out: Antitumor activity EC50, span over MLL-r leukemia and AML cells; for Inhibition of tumor cell proliferation (in words): MV4;11, Molm-13, NB4, HL60 and Hela cells
Description: as §1, §2

ENL-AF4 = biological target: T2, ENL-AF4 (Homo sapiens, UniProt Q03111); experiment: AlphaLisa assay, ENL-AF4 interaction; type: binding; conditions: ENL AHD, AF4 peptide
T2 construct: ENL AHD domain (489–559); made in house; host or cells: E. coli BL21(DE3)
T2 sequence (Q03111 489-559): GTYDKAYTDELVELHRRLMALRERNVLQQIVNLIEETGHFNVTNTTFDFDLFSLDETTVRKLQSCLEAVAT
Description: (§5) Transcription cofactor AF4, which is the most frequent (~35%) fusion protein in MLL1-r leukemia, is another binding partner of AF9/ENL [35, 36, 37]. The AF9/ENL-AF4 interactions are essential for the formation of SEC, which causes aberrant gene expression in MLL-r leukemia and other AMLs. Using our previously developed AlphaLisa assays, selected compounds were tested for their ability to inhibit the PPIs between AF9 or ENL and AF4.
as §3, §4

AF9-AF4 = biological target: T3, AF9-AF4 (Homo sapiens, UniProt P42568); experiment: AlphaLisa assay, AF9-AF4 interaction; type: binding; conditions: AF9 AHD, AF4 peptide
T3 construct: human AF9 AHD domain (475–568); made in house; host or cells: E. coli BL21(DE3)
T3 sequence (P42568 475-568): T1 sequence (P42568 475-568)
Description: as §5, §3, §4

EC50 (Hela) [µM]	EC50 (HL60) [µM]	EC50 (Molm13) [µM]	IC50 (AF9-DOT1L interaction) [µM]	EC50 (MV4;11) [µM]	inhibition at 5 µM (AF9-DOT1L interaction) [%]	Compound	EC50 (NB4) [µM]	other results
> 50	50	29 ± 2.5	4.5 ± 0.01	33 ± 2.8		O=C(NCC1CCNCC1)c1c[nH]c2cc(-c3ccc(N4CCCCC4)cc3)ccc12 [Compound 2, 6-(4-(Piperidin-1-yl)phenyl)-N-(piperidin-4-ylmethyl)-1H-indole-3-carboxamide hydrochloride]	32 ± 2	
50	9.7 ± 1.2	13 ± 1.7	7.2 ± 0.4	21 ± 1.2		Cl.O=C(NCC1CCNCC1)c1coc2cc(-c3ccc(N4CCCCC4)cc3)ccc12 [Compound 57, 6-(4-(Piperidin-1-yl)phenyl)-N-(piperidin-4-ylmethyl)-benzofuran-3-carboxamide hydrochloride]	11 ± 0.4	Antitumor activity EC50, Hela (Hela): did not affect the growth of Hela cells; EC50 [1]: 9.7 to 21 µM
> 50	50	50	2.9 ± 0.1	26 ± 1.8		O=C(NCC1CCNCC1)c1c[nH]c2cc(-c3ccc(N4CCCC4)cc3)ccc12 [Compound 12, 6-(4-(Pyrrolidin-1-yl)phenyl)-N-(piperidin-4-ylmethyl)-1H-indole-3-carboxamide hydrochloride]	50	
> 50	50	10 ± 1.6	3.6 ± 0.3	22 ± 2		O=C(NCC1CCNCC1)c1cc2cc(-c3ccc(N4CCCCC4)cc3)ccc2[nH]1 [Compound 15]	> 50	
			2.7 ± 0.2			O=C(NCC1CCNCC1)c1cc2cc(-c3ccc(N4CCCC4)cc3)ccc2[nH]1 [Compound 16]		IC50 (ENL-AF4): 1.9 ± 0.3 µM; IC50 (AF9-AF4): 1.9 ± 0.1 µM
50	26 ± 2.6	9.4 ± 0.8	5.3 ± 0.1	8.7 ± 0.9		O=C(NCC1CCNCC1)c1cc2ccc(-c3ccc(N4CCCC4)cc3)cc2s1 [Compound 25, 6-(4-(Pyrrolindin-1-yl)phenyl)-N-(piperidin-4-ylmethyl)-benzo[b]thiophene-2-carboxamide hydrochloride]	10 ± 0.5	IC50 (ENL-AF4): 7.9 ± 1.5 µM; IC50 (AF9-AF4): 7.7 ± 0.9 µM; EC50 [1]: 8.7 to 26 µM
> 50	> 50	> 50	> 30	~50		Cl.NCc1ccc(-c2ccc3cc(C(=O)NCC4CCNCC4)oc3c2)cc1 [Compound 72, 6-(4-(Aminomethyl)phenyl)-N-(piperidin-4-ylmethyl)-benzofuran-2-carboxamide hydrochloride]	> 50	Inhibition of tumor cell proliferation (in words) [1]: None of these three compounds inhibited tumor cell proliferation
					43	COc1ccc(-c2ccc3cc(C(=O)NCC4CCNCC4)sc3c2)cc1 [Compound 45, 6-(4-Methoxylphenyl)-N-(piperidin-4-ylmethyl)-benzo[b]thiophene-2-carboxamide hydrochloride]		
> 50	> 50	> 50	> 30	> 50		O=C(NCC1CCNCC1)c1cc2cc(-c3cn[nH]c3)ccc2[nH]1 [Compound 22]	> 50	IC50 (ENL-AF4): > 50 µM; IC50 ENL-AF4 (ENL-AF4): did not inhibit; IC50 (AF9-AF4): > 50 µM; IC50 AF9-AF4 (AF9-AF4): did not inhibit; Inhibition of tumor cell proliferation (in words) [1]: None of these three compounds inhibited tumor cell proliferation
					0	O=C(NCC1CCNCC1)c1cc2cc(-c3ccc(C(=O)N4CCCC4)cc3)ccc2s1 [Compound 52]		
					30	CCN(CC)c1ccc(-c2ccc3cc(C(=O)NCC4CCNCC4)oc3c2)cc1 [Compound 62, 6-(4-(Diethylamino)phenyl)-N-(piperidin-4-ylmethyl)-benzofuran-2-carboxamide hydrochloride]		
					49	CS(=O)(=O)c1ccc(-c2ccc3cc(C(=O)NCC4CCNCC4)sc3c2)cc1 [Compound 43, 6-(4-(Methylsulfonyl)phenyl)-N-(piperidin-4-ylmethyl)-benzo[b]thiophene-2-carboxamide hydrochloride]		
					0	Cl.O=C(NCC1CCNCC1)c1cc2ccc(-c3ccc(C(=O)N4CCC(N5CCCCC5)CC4)cc3)cc2s1 [Compound 33, 6-(4-(4-(Piperidin-1-yl)piperidin-1-carbonyl)phenyl)-N-(piperidin-4-ylmethyl)-benzo[b]thiophene-2-carboxamide hydrochloride]		Inhibitory activity against the AF9-DOT1L interaction (in words) (AF9-DOT1L interaction): inactive
					40	O=C(NCC1CCNCC1)c1cc2ccc(-c3ccc(N4CCNCC4)cc3)cc2[nH]1 [Compound 5]		
					27	O=C(NCc1ccc(-c2ccc3cc(C(=O)NCC4CCNCC4)oc3c2)cc1)OCc1ccccc1 [Compound 71, 6-(4-(Benzyloxycarbonylaminomethyl)phenyl)-N-(piperidin-4-ylmethyl)-benzofuran-2-carboxamide hydrochloride]		
					11	NCc1ccc(-c2ccc3c(C(=O)NCC4CCNCC4)c[nH]c3c2)cc1 [Compound 14]		
					36	O=C(NCC1CCNCC1)c1cc2cc(-c3ccc(N4CCNCC4)cc3)ccc2[nH]1 [Compound 18]		
					14	O=C(NCC1CCNCC1)c1cc2ccc(-c3ccc(-c4ccsc4)cc3)cc2[nH]1 [Compound 6]		
					20	O=C(NCC1CCNCC1)c1cc2ccc(Oc3ccc(Oc4ccc(Cl)cc4)cc3)cc2o1 [Compound 77, 6-(4-(4-Cholorophenoxyl)phenoxyl)-N-(piperidin-4-ylmethyl)-benzofuran-2-carboxamide hydrochloride]		
					0	O=C(NCC1CCNCC1)c1cc2ccc(-c3ccc(-c4ccccc4)cc3)cc2o1 [Compound 67, 6-((1,1′-Biphenyl)-4-yl)-N-(piperidin-4-ylmethyl)-benzofuran-2-carboxamide hydrochloride]		
					52	O=C(NCC1CCNCC1)c1cc2cc(-c3ccc(N4CCOCC4)cc3)ccc2[nH]1 [Compound 17]		
